# PubChem BioAssay AID1329 (NMMLSC, 2008)
# Active and inactive are the calls of the source. No rule for the calls is given here.
# Biological target: Induced myeloid leukemia cell differentiation protein Mcl-1 (Homo sapiens) (UniProt Q07820)
# Test: modulators of Bim peptide binding to Mcl-1, dose response, biochemical, bead-based flow cytometry, multiplexed, human (AID 1329)
# Settings: Bim peptide-Mcl-1 binding, MCF
# Chain of Induced myeloid leukemia cell differentiation protein Mcl-1 (Homo sapiens) (Q07820 whole entry, looked up): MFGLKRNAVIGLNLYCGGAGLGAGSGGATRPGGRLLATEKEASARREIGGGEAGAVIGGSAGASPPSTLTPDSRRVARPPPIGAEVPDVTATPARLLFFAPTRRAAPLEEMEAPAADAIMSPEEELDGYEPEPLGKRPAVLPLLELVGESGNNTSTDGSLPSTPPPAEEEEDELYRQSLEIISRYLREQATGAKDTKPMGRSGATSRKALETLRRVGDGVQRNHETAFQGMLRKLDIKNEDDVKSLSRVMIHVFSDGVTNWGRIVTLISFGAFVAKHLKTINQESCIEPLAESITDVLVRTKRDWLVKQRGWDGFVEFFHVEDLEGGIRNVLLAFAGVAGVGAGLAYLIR
row,Compound,percent span
1,CCOC(=O)C1=C(CP(=O)(c2ccccc2)c2ccccc2)NC(=O)NC1c1ccc(OC)cc1 (stereo not drawn),inactive
2,Cc1ccc(NC(=O)C/C(N)=N/OC(=O)c2ccccc2)cc1,inactive
3,COC(=O)c1ccc(-n2nnnc2SCC(=O)Nc2cc(OC)ccc2OC)cc1,inactive
4,COc1ccc(N=C2NC(=O)/C(=C\C=C\c3ccco3)S2)cc1,inactive
5,O=C(O)CC1S/C(=N/N=C/C=C/c2ccccc2[N+](=O)[O-])NC1=O (stereo not drawn),inactive
6,CC(C)c1ccc(/C=N/NC(=O)c2ccccc2Cl)cc1,inactive
7,O=C(Cc1ccc(-c2ccccc2)cc1)NC1CCCC1,inactive
8,Clc1ccc2c(N/N=C/c3cccc(Br)c3)ccnc2c1,inactive
9,COCCNC(=O)CN1CCC(NC(=O)Nc2ccccc2)CC1,inactive
10,Cc1cccc(/C=N/N(CCO)C2=NS(=O)(=O)c3ccccc32)c1,inactive
11,Cc1ccnc(NS(=O)(=O)c2ccc(NS(=O)(=O)c3cccs3)cc2)n1,inactive
12,O=C(Nc1ccc(Cl)cn1)Nc1ccccc1F,inactive
13,CCN(C(=O)COC(=O)c1cc(-c2ccc(C)o2)nc2ccccc12)C1CCS(=O)(=O)C1 (stereo not drawn),inactive
14,COc1ccc(OC)c(NC(=O)CCCN2C(=S)NC(C)(C)CC2C)c1 (stereo not drawn),inactive
15,NNC(=O)COc1ccccc1F,inactive
16,CCCCC(=O)Nc1ccc(C(=O)N2CCC(C(=O)OCC)CC2)cc1,inactive
17,O=C(CSc1nc2ccsc2c(=O)n1Cc1ccc(C(=O)O)cc1)NCC1CCCO1 (stereo not drawn),inactive
18,CN(C)C(Cc1ccccc1)C(=O)c1cccs1 (stereo not drawn),inactive
19,O=C1NC(=O)C(=Cc2ccc(-c3cc(Cl)ccc3[N+](=O)[O-])o2)C(=O)N1,inactive
20,O=C(CSc1nnc(Cc2ccccc2)o1)NCc1ccco1,inactive
21,Cc1ccc(CC(=O)OCCNC(=O)c2cccnc2)cc1,inactive
22,O=C1c2ccccc2C(=O)N1c1cccc2cccnc12,inactive
23,Cc1[nH]c2ccccc2c1C(=O)COC(=O)c1c(-c2c(F)cccc2Cl)noc1C,inactive
24,COC(=O)c1c(C(=O)OC)c2cccc3cc(-c4ccccc4)c4ccc1c4n32,inactive
25,COc1ccc(OC)c(Nc2ccc(C(=O)O)cc2[N+](=O)[O-])c1,inactive
26,NC(=O)c1c(N)sc2c1CCCCC2,inactive

row,Compound,percent span
1,S=c1[nH]cc(-c2ccccc2)n1-c1ccccc1Cl,inactive
2,CCOC(=O)C1=C(CC)Nc2ccccc2N=C1NC(=O)c1ccc(S(=O)(=O)N2CCOCC2)cc1,inactive
3,COc1ccc(NC(=O)/C(Cl)=C(/Cl)S(=O)Cc2ccccc2)cn1 (stereo not drawn),inactive
4,COc1cc(/C=C2\S/C(=N/S(=O)(=O)c3ccccc3)NC2=O)c([N+](=O)[O-])cc1OC,inactive
5,COc1c(F)c(F)c(C(=O)Nc2ccccc2N2CCN(C(=O)C(C)C)CC2)c(F)c1F,inactive
6,CS(=O)(=O)NN1C(=O)c2ccccc2NC1c1ccccc1 (stereo not drawn),inactive
7,Cc1cccc(NC(=S)N2CCn3cccc3C2c2cccnc2)c1 (stereo not drawn),inactive
8,Cc1ccc(C(=O)NNC(=O)c2ccc3ncccc3c2)cc1,inactive
9,CC(NC(=O)Nc1ccccn1)N1C(=O)C2C3C=CC(C3)C2C1=O (stereo not drawn),inactive
10,Nc1c(C(=O)NCc2ccco2)sc2nc3c(cc12)C(=O)CCC3,inactive
11,Fc1ccc(Cn2nnnc2C(c2ccc(Cl)cc2)N2CCSCC2)cc1 (stereo not drawn),inactive
12,Cc1ccc(/C=C2/NC(=O)N(Cc3ccccc3)C2=O)o1,inactive
13,COc1ccc2nc(NC(=O)c3ccc(-c4cccc([N+](=O)[O-])c4)o3)sc2c1,inactive
14,C=CCN1C(=O)/C(=C/c2ccsc2)SC1=S,inactive
15,CC(C)(C)NC(=O)COc1ccc(CNc2ccc3[nH]c(=O)[nH]c3c2)cc1,inactive
16,NCC(c1ccccc1)c1c[nH]c2ccccc12 (stereo not drawn),inactive
17,COc1ccc(-n2c(NC(=O)c3ccco3)c(C#N)c3nc4ccccc4nc32)cc1,inactive
18,Cc1ccnc(NS(=O)(=O)c2ccc(NC(=O)c3c(-c4ccccc4Cl)noc3C)cc2)n1,inactive
19,COc1ccc(C2(NC(C)=O)CCN(C(=O)c3ccco3)CC2)cc1,inactive
20,CCc1cccc(CC)c1-n1c(-c2cccnc2)n[nH]c1=S,inactive
21,Cc1cc(-c2nn(-c3ccccc3)cc2/C=C2\SC(N)=NC2=O)ccc1OC(C)C,inactive
22,C=CCSc1nc(N)c2c(C)c(C)sc2n1,inactive
23,COc1ccccc1Oc1ccc2c(c1)C(=O)N(c1cccc3ncccc13)C2=O,inactive
24,COc1ccc(N2CC(C(=O)Nc3nnc(SCC(=O)c4ccccc4)s3)CC2=O)cc1 (stereo not drawn),inactive
25,CCOC(=O)c1cc2c(=O)n3cccc(C)c3nc2n(Cc2ccco2)c1=NC(=O)c1ccccc1,inactive
26,CC(C)=C1C(=O)NN(c2ccc(C)c(Cl)c2)C1=O,inactive

row,Compound,percent span
1,COC(=O)c1cc(OC)c(OC)cc1NC(=O)Nc1cccc(C(C)=O)c1,inactive
2,O=C(CNC(=O)c1ccco1)NCC(=O)OCc1ccccc1Br,inactive
3,CC(C)(C)OC(=O)N1CCN(C(=O)[C@H](Cc2ccc(O)cc2)n2cc(CCO)nn2)CC1,inactive
4,O=C(O)c1ccc(NC2=C/C(=N/S(=O)(=O)c3ccccc3)c3ccccc3C2=O)cc1,inactive
5,CC1=C2C(CCS2(=O)=O)CC2(C1)C(=O)OC(C)(C)OC2=O (stereo not drawn),inactive
6,Cc1ccc(-n2nc(C)c(C(=O)O)n2)c(C)c1,inactive
7,CCC(CC)C(=O)Nc1cccc(S(=O)(=O)c2cccc(NC(=O)C(CC)CC)c2)c1,inactive
8,O=[N+]([O-])c1ccc(-c2cn(-c3ccc(Cl)cc3)c(=S)[nH]2)cc1,inactive
9,N#CC(C#N)=C1C=CC=CN1/C(=C\c1ccco1)C(=O)c1ccccc1,inactive
10,C/C(=N\NC(=O)COc1ccc(C#N)cc1)c1ccccc1OC(F)F,inactive
11,O=C(NCC1CCCO1)c1ccc2c(=O)n(-c3ccc(F)cc3)c(=S)[nH]c2c1 (stereo not drawn),inactive
12,N/C(=N\OC(=O)CCC1CCCC1)c1ccncc1,inactive
13,Cc1ccccc1-c1nc(-c2ccc(NC(=O)c3ccc4c(c3)OCO4)cc2)no1,inactive
14,CC1(C(=O)N(CC(=O)NC2CCCC2)Cc2ccco2)CC(=O)N=C2C=CC=CN21 (stereo not drawn),inactive
15,CN1CCc2cccc3c2[C@H]1Cc1ccc(O)c(O)c1-3,inactive
16,O=C(N/N=C/c1ccc(O)c(O)c1O)/C(=C/c1ccc([N+](=O)[O-])cc1)NC(=O)c1ccccc1,inactive
17,COc1ccc(/C=C/C(=O)Nc2sc(Cc3ccccc3)c(C)c2C(N)=O)cc1,inactive
18,O=C1/C(=C\c2ccco2)NC(=S)N1c1ccccc1,inactive
19,COc1ccc2nc(C)cc(SCC(=O)N/N=C/c3ccc(O)c(O)c3)c2c1,inactive
20,O=C1c2ccccc2C(=O)c2cc(S(=O)(=O)Nc3ccccc3)ccc21,inactive
21,COc1ccc(S(=O)(=O)NCCSc2ccc(Cl)cc2)cc1OC,inactive
22,CC(=O)Nc1ccc(NC2=C(Cl)C(=O)c3ccccc3C2=O)cc1,inactive
23,Cc1ccc(-c2cc(-c3ccc(F)cc3)nc(N)c2C#N)o1,inactive
24,CC(C)COC(=O)/C(C#N)=C/c1cn(Cc2ccccc2)c2ccccc12,inactive
25,N#Cc1cc(-c2ccccc2)nn1-c1ccccc1,inactive
26,O=C(COc1ccccc1)N1CCN(c2ncnc3c2cnn3-c2ccccc2)CC1,inactive

row,Compound,percent span
1,CC1Cc2ccccc2N1C(=O)c1ccc(N2CCCC2)c([N+](=O)[O-])c1 (stereo not drawn),inactive
2,Fc1ccccc1-n1cc(-c2ccccc2)[nH]c1=S,inactive
3,O=[N+]([O-])c1ccc(N/N=C/c2ccc(O)c(O)c2O)c(S(=O)(=O)N2CCOCC2)c1,inactive
4,CC1=NN(c2ccc(C)cc2)C(=O)/C1=C\c1ccc(Br)s1,inactive
5,Cc1ccc2c(C)c(C(=O)Nc3nnc(C)s3)oc2c1,inactive
6,CC(=O)c1ccc(NC(=O)c2ccc3nc(-c4ccco4)c(-c4ccco4)nc3c2)cc1,inactive
7,N/C(Cc1ccc(Cl)c(Cl)c1)=N\OC(=O)c1cccs1,inactive
8,C/C(=N\NC(=O)Cc1cccn1C)c1ccc2ccccc2c1,inactive
9,O=C(c1cc(=O)c2ccccc2o1)N1CCN(c2ccccc2F)CC1,inactive
10,CCOc1ccc(CNc2ccc(N3CCCC3)cc2)cc1,inactive
11,CC1Nc2ccccc2C(=O)N1NS(C)(=O)=O (stereo not drawn),inactive
12,Cc1nc2ccccc2n1CSc1ccccc1,inactive
13,CCc1ccc(NC(=O)Cc2ccc(OC)cc2)cc1,inactive
14,CN(C)c1ccc(Nc2nc(-c3cccnc3)cs2)cc1,inactive
15,Cc1ccc(/C=N/N(C)C2=NS(=O)(=O)c3ccccc32)o1,inactive
16,O=C(c1ccc(CNS(=O)(=O)c2ccc(Br)cc2)cc1)N1CCCC1,inactive
17,Cc1ccc(Nc2nc(CSc3nnc(-c4cccnc4)n3-c3ccccc3C)cs2)cc1,inactive
18,CC1CC2=C(NC(=S)NC2c2ccccc2F)/C(=C/c2ccccc2F)C1 (stereo not drawn),inactive
19,O=C(CSc1nnc(-c2ccccc2)c(-c2ccccc2)n1)N1CCc2ccccc21,inactive
20,Cc1cc(C)nc(/N=c2/ssnc2Cl)c1,inactive
21,O=C(Nc1ccccc1N1CCOCC1)c1cccs1,inactive
22,Cc1cc(C)cc(-n2c(C)nc3cc(C(=O)O)ccc32)c1,inactive
23,Clc1ccc(N=c2ssnc2Cl)nc1,inactive
24,COc1cc(/C=C2\S/C(=N/S(=O)(=O)c3ccc(C)cc3)NC2=O)c([N+](=O)[O-])cc1OC,inactive
25,O=C(OCC(=O)c1ccc[nH]1)c1ccccc1,inactive
